Data: PubChem BioAssay (NCI)
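Cultured in 96-well plates, cells were exposed to test compound for 48 hours across five concentrations. Abbreviation: GI50, concentration required for 50% inhibition of growth. The concentration for full growth arrest is given as TGI.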

Assays:
Assay in all cases: DTP human tumour cell line panel, 48 h
[1] = tested on: SNB-75 CNS
[2] = tested on: NCI-H23 lung
[3] = tested on: CAKI-1 renal
[4] = tested on: K-562 leukemia
[5] = tested on: OVCAR-4 ovarian
[6] = tested on: SNB-19 CNS
[7] = tested on: CCRF-CEM leukemia
[8] = tested on: OVCAR-5 ovarian
[9] = tested on: MCF7 breast
[10] = tested on: MDA-MB-231 breast

Structure (SMILES) | TGI [1] | TGI [2] | TGI [3] | TGI [4] | TGI [5] | TGI [6] | TGI [7] | TGI [8] | GI50 [1] | GI50 [2] | GI50 [4] | GI50 [5] | GI50 [6] | GI50 [7] | GI50 [8] | GI50 [9] | TGI [9] | GI50 [10] | TGI [10] | GI50 [3]
COC(=O)CSc1n[nH]c(-c2ccccc2)n1 | > 100 µM | > 100 µM | > 100 µM | > 100 µM | > 100 µM | > 100 µM | > 100 µM | > 100 µM |  |  |  |  |  |  |  |  |  |  |  | 
O=c1c(-c2ccc3c(c2)OCO3)coc2c(CO)c(O)ccc12 | 7.43 µM | 24.5 µM |  | > 100 µM | 18.1 µM | 10.3 µM | > 100 µM | 10.5 µM | 2.39 µM | 4.87 µM | 2.87 µM | 3.39 µM | 2.87 µM | 3.44 µM | 3.3 µM | 2.72 µM | 25.4 µM | 2.01 µM | 5.09 µM | 
CC(N)CN.CC(N)CN.[Cl-].[O]=[Os+2]=[O] (stereo not drawn) | > 100 µM | > 100 µM | > 100 µM |  | > 100 µM | > 100 µM |  | > 100 µM | > 100 µM | > 100 µM |  | > 100 µM | > 100 µM |  | > 100 µM |  |  |  |  | > 100 µM
CN(C)CCCNC(=O)c1cccc2nc3ccccc3nc12 | > 100 µM | 33.5 µM | > 78.2 µM | 60.4 µM | 47.2 µM | > 100 µM |  | 54.3 µM |  |  |  |  |  |  |  |  |  |  |  | 
Cc1cc(N2CCN(C)CC2)nc(N(CCNc2ccnc3cc(Cl)ccc23)Cc2ccco2)n1 | 19.6 µM | 21.4 µM |  | 4.78 µM | 18.2 µM | 16.5 µM | 10.2 µM | 19.4 µM | 4.1 µM | 6.26 µM | 1.59 µM | 4.91 µM | 4.92 µM | 3.37 µM | 5.89 µM | 2.12 µM | 6.89 µM | 2.46 µM | 7.84 µM | 
COc1cc(-c2nccc3[nH]c(-c4cccc5[nH]ccc45)nc23)cc(OC)c1OC | 16.5 µM | 19.1 µM | 14.6 µM |  | 16.2 µM | 20.6 µM | 12 µM | 27.6 µM | < 0.01 µM | < 0.01 µM |  | < 0.01 µM | < 0.01 µM | < 0.01 µM | 3.89 µM | < 0.01 µM | 14.4 µM | < 0.01 µM | 17.1 µM | < 0.01 µM
COc1ccc(/C=c2\sc3nnc(CCC(=O)Nc4cccc(C(F)(F)F)c4)n3c2=O)cc1 | > 100 µM | > 100 µM | > 100 µM | > 100 µM | > 100 µM | > 100 µM | 90.3 µM | > 100 µM |  |  |  |  |  |  |  |  |  |  |  | 
C=C(CS(=O)(=O)c1ccccc1)C(=O)OCC | 32 µM | 37.2 µM | 33.9 µM | 35 µM |  | 37.9 µM | 12.2 µM | 34.8 µM |  |  |  |  |  |  |  |  |  |  |  | 
O=c1c2cc(Br)ccc2[nH]c(=S)n1-c1ccccc1 | > 100 µM | > 100 µM | > 100 µM | > 100 µM | > 100 µM | > 100 µM | > 100 µM | > 100 µM |  |  |  |  |  |  |  |  |  |  |  | 
CC(C)(C)c1cc(Oc2ccc(C#N)c(C#N)c2)cc(C(C)(C)C)c1 | > 100 µM | > 100 µM | > 100 µM | > 100 µM | > 100 µM | > 100 µM | > 100 µM | > 100 µM |  |  |  |  |  |  |  |  |  |  |  | 
CC(=O)NC1CCCN(O)C(=O)/C=C(/C)CCOC(=O)C(NC(C)=O)CCCN(O)C(=O)/C=C(/C)CCOC(=O)C(NC(C)=O)CCCN(O)C(=O)/C=C(/C)CCOC1=O.[Fe] (stereo not drawn) | > 100 µM | > 100 µM | > 100 µM |  | > 100 µM | > 100 µM | > 100 µM | > 100 µM | > 100 µM | > 100 µM |  | > 100 µM | > 100 µM | > 100 µM | > 100 µM | > 100 µM | > 100 µM | > 100 µM | > 100 µM | > 100 µM
C[N+](C)(C)CC(=O)N/N=C/c1oc(-c2cccc([N+](=O)[O-])c2)c(-c2cccc([N+](=O)[O-])c2)c1[N+](=O)[O-] |  | > 100 µM |  |  | > 100 µM | > 100 µM | > 100 µM | > 100 µM |  |  |  |  |  |  |  |  |  |  |  | 
COc1ccc2oc(-c3cc4cc(OC)ccc4o3)cc2c1 | > 100 µM | > 100 µM | > 100 µM | > 100 µM | > 100 µM | > 100 µM | > 100 µM | > 100 µM |  |  |  |  |  |  |  |  |  |  |  | 
O=C(N/N=C/c1ccncc1)c1ccc(C(F)(F)F)nc1Nc1cccc(C(F)(F)F)c1 | 17 µM | 16.2 µM | 4.97 µM | 11.8 µM | 7.99 µM | 11.8 µM |  | 14.8 µM | 4.34 µM | 4.34 µM | 2.69 µM | 0.808 µM | 2.67 µM |  | 2.83 µM | 2.27 µM | 8.52 µM | 1.81 µM | 9.43 µM | 1.48 µM
CCOc1ccc(/C=N\N2C(=O)c3ccccc3C2=O)cc1 | > 100 µM | > 100 µM | > 100 µM | > 100 µM | > 100 µM | > 100 µM | > 100 µM | > 100 µM |  |  |  |  |  |  |  |  |  |  |  | 
CN=c1ss/c(=N\C(=S)N(C)C)n1C1CCCCC1 | > 10 µM | > 31.6 µM | > 31.6 µM | > 31.6 µM | > 31.6 µM | > 31.6 µM | > 31.6 µM | > 31.6 µM |  |  |  |  |  |  |  |  |  |  |  | 
C=C1C(=O)O[C@H]2[C@H]1CC/C(COC(=O)c1cccc3ccccc13)=C\CC[C@@]1(C)O[C@@H]21 | 13.3 µM | 3.7 µM |  | 14.7 µM | 3.43 µM | 3.19 µM | 12.4 µM | 5.58 µM | 3.04 µM | 1.78 µM | 1.98 µM | 1.7 µM | 1.57 µM | 0.327 µM | 2.27 µM | 0.722 µM | 2.84 µM | 1.69 µM | 3.68 µM | 
CC1=C(C(=O)Nc2cccc(C(F)(F)F)c2)C(c2ccccc2F)C(C(=O)Nc2cccc(C(F)(F)F)c2)=C(C)N1 | 79.6 µM | 17 µM | 25 µM | 18.6 µM | 14 µM | 25.8 µM | 12.4 µM | 24.5 µM |  |  |  |  |  |  |  |  |  |  |  | 
